Laboratory results from US20050101611A1, “Oral formulation comprising an inhibitor compound of the ileal bile transport and an hmg co-a reductase inhibitor” (priority 2000, published 2005).

Biological target: T1, ileal bile acid transport system (IBAT) (Homo sapiens, UniProt Q12908)
T1 sequence (Q12908 1-348): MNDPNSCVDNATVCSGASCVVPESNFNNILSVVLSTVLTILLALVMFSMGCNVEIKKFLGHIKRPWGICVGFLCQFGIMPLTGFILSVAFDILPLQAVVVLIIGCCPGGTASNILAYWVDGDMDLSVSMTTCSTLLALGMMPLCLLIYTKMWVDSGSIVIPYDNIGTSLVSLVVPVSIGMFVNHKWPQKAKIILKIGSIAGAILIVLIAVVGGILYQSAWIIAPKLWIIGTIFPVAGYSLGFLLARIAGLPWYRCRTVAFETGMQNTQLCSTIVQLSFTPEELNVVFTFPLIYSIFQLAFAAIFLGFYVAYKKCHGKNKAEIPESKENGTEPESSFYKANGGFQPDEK
Assay: inhibition of IBAT
Conditions: statement in background text; no method or data given

inhibition of IBAT: no activity
SMILES: COc1ccc([C@@H]2Sc3ccccc3N(CCN(C)C)C(=O)[C@@H]2OC(C)=O)cc1 [diltiazem]
